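All cell lines were grown in 96-well plates and treated with compound for 48 hours. Here, GI50 denotes the concentration required for 50% inhibition of growth.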 The source made the active and inactive calls. Cut-off read from the data, not from the text of the source: active = GI50 up to about 1.1 µM and inactive = higher.
Legend:
Assay in all cases: NCI-60 cell line screen, 48 h
DLD-1 = test system: DLD-1
DMS-273 = test system: DMS-273
KM-20L2 = test system: KM-20L2
LXFL 529 = test system: LXFL 529
RXF 631 = test system: RXF 631
SNB-78 = test system: SNB-78
XF498 = test system: XF498
HOP-18 = test system: HOP-18
M19-MEL = test system: M19-MEL

Measured: GI50

O=c1cc(O)cc2n1CCC2
inactive: DLD-1 > 100 µM | DMS-273 > 100 µM | KM-20L2 > 100 µM | LXFL 529 > 100 µM | RXF 631 > 100 µM | SNB-78 > 100 µM | XF498 > 100 µM

COC(=O)/C(=N\NC(N)=O)C(C(=O)C(=O)Nc1ccccc1C(=O)OC)c1nc2ccc(C(=O)c3ccccc3)cc2nc1O (centres undefined)
inactive: DLD-1 > 100 µM | DMS-273 > 100 µM | HOP-18 > 100 µM | KM-20L2 > 100 µM | LXFL 529 > 100 µM | M19-MEL > 100 µM | RXF 631 > 100 µM | SNB-78 > 100 µM | XF498 > 100 µM

COc1ccc(/C(=N\NC(=O)C(=O)NN)C(c2ccc(OC)cc2)C2(O)C(=O)Nc3ccccc32)cc1 (centres undefined)
inactive: DLD-1 51.4 µM | DMS-273 > 100 µM | KM-20L2 > 100 µM | LXFL 529 29 µM | M19-MEL > 100 µM | RXF 631 > 100 µM | SNB-78 > 100 µM | XF498 29.6 µM

Cc1ccccc1C(=O)Oc1ccc(O)cc1
inactive: DLD-1 > 100 µM | DMS-273 > 100 µM | HOP-18 > 100 µM | KM-20L2 > 100 µM | M19-MEL > 100 µM | RXF 631 > 100 µM | SNB-78 > 100 µM

CCOC(=O)C(=O)Nc1cccc(Cl)c1C
inactive: DLD-1 > 100 µM | HOP-18 > 100 µM | LXFL 529 > 100 µM | M19-MEL > 100 µM | RXF 631 > 100 µM | SNB-78 > 100 µM | XF498 49.8 µM

N#CCCN(c1ccc(C=O)cc1)S(=O)(=O)c1ccccc1
inactive: DMS-273 > 100 µM | KM-20L2 > 100 µM | LXFL 529 > 100 µM | M19-MEL > 100 µM | XF498 > 100 µM

Cn1c(=O)nc2n(-c3ccc(Cl)cc3)c3ccc(Cl)cc3nc-2c1=O
inactive: KM-20L2 4.88 µM | SNB-78 14.8 µM

CCN(CC)CCn1c2c3ccccc3ccc2c2oc(=O)c3ccccc3c21
inactive: DLD-1 > 100 µM | HOP-18 > 100 µM | KM-20L2 > 100 µM | LXFL 529 > 100 µM | M19-MEL > 100 µM | RXF 631 > 100 µM | SNB-78 > 100 µM | XF498 > 100 µM

COc1ccc(N2C(=O)[C@H]3CC(C)c4c([nH]c5ccccc45)[C@H]3C2=O)cc1 (some centres undefined)
inactive: DLD-1 3.54 µM | DMS-273 1.51 µM | KM-20L2 2.99 µM | LXFL 529 4.14 µM | M19-MEL 2.13 µM | SNB-78 5.08 µM | XF498 4.76 µM

Cc1cc(O)nc(CNC(=O)Cc2ccccc2)n1
inactive: DLD-1 > 100 µM | DMS-273 > 100 µM | KM-20L2 > 100 µM | LXFL 529 > 100 µM | M19-MEL > 100 µM | SNB-78 > 100 µM | XF498 > 100 µM

CC1=COC(=O)c2ccccc2N1
inactive: DLD-1 > 100 µM | DMS-273 > 100 µM | KM-20L2 > 100 µM | LXFL 529 > 100 µM | M19-MEL > 100 µM | SNB-78 > 100 µM

CCN(CC)CCNC(=O)c1ccccc1NC(=O)C(=O)Nc1ccccc1C(=O)NCCN(CC)CC
inactive: DLD-1 63.4 µM | DMS-273 > 100 µM | HOP-18 > 100 µM | KM-20L2 37.7 µM | M19-MEL 22.8 µM | RXF 631 > 100 µM | SNB-78 > 100 µM

O=C(Nc1ccc(C(F)(F)F)cc1[N+](=O)[O-])C(=O)C(C(=O)c1ccc2ccccc2c1)C1OC(=O)c2ccccc21 (centres undefined)
inactive: DLD-1 6.9 µM | KM-20L2 20.6 µM | LXFL 529 5.18 µM | M19-MEL 8.89 µM | SNB-78 10.1 µM

COc1cc2ccc3c4cc(OC)c(OC)cc4c[n+](C)c3c2cc1O
inactive: DLD-1 > 100 µM | DMS-273 55.5 µM | HOP-18 > 100 µM | KM-20L2 > 100 µM | LXFL 529 12.6 µM | M19-MEL > 100 µM | SNB-78 > 100 µM | XF498 24.7 µM

CCOC(=O)C(C(=O)c1ccccc1)=C1NCCN1
inactive: DLD-1 > 100 µM | HOP-18 4.06 µM | KM-20L2 > 100 µM | LXFL 529 > 100 µM | M19-MEL > 100 µM | RXF 631 > 100 µM | XF498 > 100 µM

O=C(N/N=C/c1cccc(O)c1O)N/N=C/c1cccc(O)c1O
inactive: DMS-273 22.9 µM | HOP-18 19.2 µM | KM-20L2 29.3 µM | LXFL 529 16.7 µM | M19-MEL 22.4 µM | SNB-78 34.8 µM | XF498 19.1 µM

FC(F)(F)c1ccc(/C=N/C23CC4CC(CC(C4)C2)C3)cc1
inactive: DMS-273 > 100 µM | KM-20L2 > 100 µM | SNB-78 > 100 µM

CCCCNC(=O)NNC(=O)c1cc(/C=C/c2cccc([N+](=O)[O-])c2)ncn1
inactive: DLD-1 37.7 µM | DMS-273 > 100 µM | HOP-18 > 100 µM | KM-20L2 > 100 µM | LXFL 529 > 10 µM | M19-MEL > 100 µM | RXF 631 > 100 µM | SNB-78 > 100 µM | XF498 > 100 µM

CCCCN(CC)C(=O)C(=O)C1C(=O)Nc2ccccc2[S+]1[O-] (centres undefined)
inactive: DLD-1 > 100 µM | DMS-273 > 100 µM | HOP-18 > 100 µM | KM-20L2 > 100 µM | LXFL 529 > 100 µM | M19-MEL > 100 µM | SNB-78 > 100 µM

CCN1N=CSC12C(=O)N(c1ccccc1)C(=O)N2c1ccccc1 (centres undefined)
inactive: DLD-1 > 100 µM | HOP-18 > 100 µM | KM-20L2 > 100 µM | LXFL 529 > 100 µM | RXF 631 > 100 µM | SNB-78 > 100 µM | XF498 32.7 µM

CC(C)(C)C1CCC(=O)C(C(O)CC2CC(=O)N(c3ccccc3)C(=O)C2)C1 (centres undefined)
inactive: DLD-1 > 100 µM | DMS-273 > 100 µM | HOP-18 > 100 µM | KM-20L2 > 100 µM | LXFL 529 > 100 µM | M19-MEL > 100 µM | RXF 631 56.8 µM | SNB-78 > 100 µM | XF498 > 100 µM

COc1ccc(C2Cc3cc(OC)c(OC)c(OC)c3C2=O)cc1 (centres undefined)
inactive: DLD-1 > 100 µM | DMS-273 > 100 µM | HOP-18 > 100 µM | KM-20L2 > 100 µM | M19-MEL > 100 µM | SNB-78 > 100 µM | XF498 2 µM
